According to the NIST ThermoML archive (doi:10.1016/j.jct.2008.09.014):
Several values for one entry are separate records, joined by “and”; a condition that tells them apart may be missing. Equal values may be shown once.

Settings: Crystal; for vapor or sublimation pressure: Calculated from knudsen effusion weight loss

O=[N+]([O-])c1ccc2[nH]ccc2c1 [5-nitroindole]
Settings | vapor or sublimation pressure
353.15 K | 9.42e-05 kPa and 9.3e-05 kPa
355.2 K | 0.0001148 kPa and 0.0001117 kPa
357.18 K | 0.0001368 kPa and 0.0001345 kPa and 0.000131 kPa
359.15 K | 0.0001667 kPa and 0.0001723 kPa and 0.0001702 kPa
361.19 K | 0.0001997 kPa and 0.000201 kPa
363.17 K | 0.0002441 kPa and 0.0002364 kPa
365.16 K | 0.0003138 kPa and 0.0003041 kPa and 0.0002935 kPa
367.19 K | 0.0003798 kPa and 0.0003685 kPa and 0.0003544 kPa
369.17 K | 0.0004448 kPa and 0.000439 kPa and 0.0004322 kPa
371.17 K | 0.0005523 kPa and 0.0005458 kPa and 0.0005326 kPa
373.19 K | 0.0006817 kPa and 0.0006526 kPa and 0.0006311 kPa
375.17 K | 0.0008006 kPa and 0.0007692 kPa

O=[N+]([O-])c1ccc2c(c1)CCN2 [5-nitroindoline]
Settings | mass density [kg/m3]
298.15 K, 101.33 kPa, mass and volume measurement | 1390

Settings | vapor or sublimation pressure
338.09 K | 6.24e-05 kPa and 6.06e-05 kPa and 6.3e-05 kPa
340.12 K | 7.74e-05 kPa and 7.36e-05 kPa and 7.65e-05 kPa
342.2 K | 0.000101 kPa and 9.69e-05 kPa and 9.36e-05 kPa
344.08 K | 0.0001236 kPa and 0.0001184 kPa and 0.0001211 kPa
346.1 K | 0.0001521 kPa and 0.0001453 kPa and 0.0001435 kPa
348.19 K | 0.0001876 kPa and 0.0001782 kPa and 0.0001803 kPa
350.1 K | 0.000241 kPa and 0.0002364 kPa and 0.0002307 kPa
352.13 K | 0.0002958 kPa and 0.0002905 kPa and 0.0002792 kPa
354.19 K | 0.0003738 kPa and 0.0003438 kPa and 0.0003465 kPa
356.1 K | 0.0004193 kPa and 0.0004189 kPa and 0.0004131 kPa
358.12 K | 0.0005196 kPa and 0.0005153 kPa and 0.0005004 kPa
360.18 K | 0.0006675 kPa and 0.0006261 kPa and 0.0006157 kPa
